Results reported in US6610846B1, “Heteroaromatic glucokinase activators” (Hoffman-La Roche Inc., priority 1999, dated 2003).

system: C57BL/6J mice; assay: Glucokinase activator in vivo screen (blood glucose after oral dosing); settings: administered orally, 50 mg/kg, C57BL/6J mice fasted two hours; decrease in blood glucose compared to vehicle over six hours (Example B)
Experimental: Glucokinase Activator In Vivo Screen Protocol
C57BL/6J mice are orally dosed via gavage with Glucokinase (GK) activator at 50 mg/kg body weight following a two hour fasting period. Blood glucose determinations are made five times during the six hour post-dose study period. Mice (n=6) are weighed and fasted for a two hour period prior to oral treatment.

Compound | glucokinase activator in vivo activity
CS(=O)(=O)c1ccc([C@@H](CC2CCCC2)C(=O)Nc2ccc(Br)cn2)cc1Cl [Example 99, N-(5-Bromo-pyridin-2-yl)-2(R)-(3-chloro-4-methanesulfonyl-phenyl)-3-cyclopentyl-propionamide] | excellent glucokinase activator in vivo activity
Cc1csc(NC(=O)[C@H](CC2CCCC2)c2ccc(S(C)(=O)=O)c(Cl)c2)n1 [Example 139, 2(R)-(3-Chloro-4-methanesulfonyl-phenyl)-3-cyclopentyl-N-(4-methyl-thiazol-2-yl)-propionamide] | excellent glucokinase activator in vivo activity
CS(=O)(=O)c1ccc(C(CC2CCCC2)C(=O)Nc2ccc(Br)cn2)cc1Cl (stereo not drawn) [Example 93, N-(5-Bromo-pyridin-2-yl)-2-(3-chloro-4-methanesulfonyl-phenyl)-3-cyclopentyl-propionamide] | excellent glucokinase activator in vivo activity
CS(=O)(=O)c1ccc(C(CC2CCCC2)C(=O)Nc2ccccn2)cc1Cl (stereo not drawn) [Example 92, 2-(3-Chloro-4-methanesulfonyl-phenyl)-3-cyclopentyl-N-pyridin-2-yl-propionamide] | excellent glucokinase activator in vivo activity
COC(=O)c1ccc(NC(=O)C(CC2CCCC2)c2ccc(S(=O)(=O)C(F)(F)F)cc2)nc1 (stereo not drawn) [Example 43(B)(c), 6-[3-Cyclopentyl-2-(4-trifluoromethanesulfonyl-phenyl)-propionylamino]-nicotinic acid methyl ester] | excellent glucokinase activator in vivo activity
O=C(Nc1ccc(CO)cn1)[C@H](CC1CCCC1)c1ccc(Cl)c(Cl)c1 [Example 106, 3-Cyclopentyl-2(R)-(3,4-dichloro-phenyl)-N-(5-hydroxymethyl-pyridin-2-yl)propionamide] | excellent glucokinase activator in vivo activity
CS(=O)(=O)c1ccc(C(CC2CCCC2)C(=O)Nc2ccncn2)cc1C(F)(F)F (stereo not drawn) [Example 155(B)(a), 3-Cyclopentyl-2-(4-methanesulfonyl-3-trifluoromethyl-phenyl)-N-pyrimidin-4-yl-propionamide] | excellent glucokinase activator in vivo activity
Cc1nccc(NC(=O)C(CC2CCCC2)c2ccc(S(C)(=O)=O)c(C(F)(F)F)c2)n1 (stereo not drawn) [Example 155(B)(c), 3-Cyclopentyl-2-(4-methanesulfonyl-3-trifluoromethyl-phenyl)-N-(2-methyl-pyrimidin-4-yl)-propionamide] | excellent glucokinase activator in vivo activity
CS(=O)(=O)c1ccc(C(CC2CCCC2)C(=O)Nc2nccs2)cc1Cl (stereo not drawn) [Example 12, 2-[3-Chloro-4-methanesulfonyl-phenyl]-3-cyclopentyl-N-thiazol-2-yl-propionamide] | excellent glucokinase activator in vivo activity
COC(=O)c1ccc(NC(=O)[C@H](CC2CCCC2)c2ccc(Cl)c(Cl)c2)nc1 [Example 45, 6-[3-Cyclopentyl-2(R)-(3,4-dichloro-phenyl)-propionylamino]-nicotinic acid methyl ester] | excellent glucokinase activator in vivo activity
Cc1ccc(NC(=O)[C@H](CC2CCCC2)c2ccc(S(C)(=O)=O)c(Cl)c2)nc1 [Example 140, 2(R)-(3-Chloro-4-methanesulfonyl-phenyl)-3-cyclopentyl-N-(5-methyl-pyridin-2-yl)-propionamide] | excellent glucokinase activator in vivo activity
Cc1ccc(NC(=O)C(CC2CCCC2)c2ccc(S(=O)(=O)C(F)(F)F)cc2)nc1 (stereo not drawn) [Example 43(B)(b), 3-Cyclopentyl-N-(5-methyl-pyridin-2-yl)-2-(4-trifluoromethanesulfonyl-phenyl)-propionamide] | excellent glucokinase activator in vivo activity
CS(=O)(=O)c1ccc([C@@H](CC2CCCC2)C(=O)Nc2ncc(Br)s2)cc1 [Example 133, N-(5-Bromo-thiazol-2-yl)-3-cyclopentyl-2(R)-(4-methanesulfonyl-phenyl)-propionamide] | excellent glucokinase activator in vivo activity
Cc1nccc(NC(=O)[C@H](CC2CCCC2)c2ccc(S(C)(=O)=O)c(C(F)(F)F)c2)n1 [Example 157(B)(b), 3-Cyclopentyl-2(R)-(4-methanesulfonyl-3-trifluoromethyl-phenyl)-N-(2-methyl-pyrimidin-4-yl)-propionamide] | excellent glucokinase activator in vivo activity
Cc1nccc(NC(=O)C(CC2CCCC2)c2ccc(S(C)(=O)=O)c(Cl)c2)n1 (stereo not drawn) [Example 143, 2-(3-Chloro-4-methanesulfonyl-phenyl)-3-cyclopentyl-N-(2-methyl-pyrimidin-4-yl)-propionamide] | excellent glucokinase activator in vivo activity
CS(=O)(=O)c1ccc(C(CC2CCCC2)C(=O)Nc2nccs2)cc1 (stereo not drawn) [Example 3(A), 3-Cyclopentyl-2-(4-methanesulfonyl-phenyl)-N-thiazol-2-yl-propionamide] | excellent glucokinase activator in vivo activity
CS(=O)(=O)c1ccc(C(CC2CCCC2)C(=O)Nc2cnccn2)cc1C(F)(F)F (stereo not drawn) [Example 155(B)(b), 3-Cyclopentyl-2-(4-methanesulfonyl-3-trifluoromethyl-phenyl)-N-pyrazin-2-yl-propionamide] | excellent glucokinase activator in vivo activity
O=C(Nc1ccccn1)[C@H](CC1CCCC1)c1ccc(Cl)c(Cl)c1 [Example 54(B)(a), 3-Cyclopentyl-2(R)-(3,4-dichloro-phenyl)-N-pyridin-2-yl-propionamide] | excellent glucokinase activator in vivo activity
Cc1nccc(NC(=O)C(CC2CCCC2)c2ccc(S(C)(=O)=O)c(Br)c2)n1 (stereo not drawn) [Example 148(B)(a), 2-(3-Bromo-4-methanesulfonyl-phenyl)-3-cyclopentyl-N-(2-methyl-pyrimidin-4-yl)-propionamide] | excellent glucokinase activator in vivo activity
CS(=O)(=O)c1ccc(C(CC2CCCC2)C(=O)Nc2ccncn2)cc1Cl (stereo not drawn) [Example 141, 2-(3-Chloro-4-methanesulfonyl-phenyl)-3-cyclopentyl-N-pyrimidin-4-yl-propionamide] | excellent glucokinase activator in vivo activity
O=C(Nc1ccc(Cl)cn1)[C@H](CC1CCCC1)c1ccc(Cl)c(Cl)c1 [Example 54(A), N-(5-Chloro-pyridin-2-yl)-3-cyclopentyl-2(R)-(3,4-dichloro-phenyl)-propionamide] | excellent glucokinase activator in vivo activity
CS(=O)(=O)c1ccc([C@@H](CC2CCCC2)C(=O)Nc2nccs2)cc1 [Example 13, (2R)-3-Cyclopentyl-2-(4-methanesulfonylphenyl)-N-thiazol-2-yl-propionamide] | excellent glucokinase activator in vivo activity
CS(=O)(=O)c1ccc([C@@H](CC2CCCC2)C(=O)Nc2ccncn2)cc1Cl [Example 142, 2(R)-(3-Chloro-4-methanesulfonyl-phenyl)-3-cyclopentyl-N-pyrimidin-4-yl-propionamide] | excellent glucokinase activator in vivo activity
CS(=O)(=O)c1ccc([C@@H](CC2CCCC2)C(=O)Nc2cnccn2)cc1C(F)(F)F [Example 157(B)(a), 3-Cyclopentyl-2(R)-(4-methanesulfonyl-3-trifluoromethyl-phenyl)-N-pyrazin-2-yl-propionamide] | excellent glucokinase activator in vivo activity

system: not given; assay: not given; settings: not given

melting point | Compound
79 to 84 °C | CS(=O)(=O)c1ccc(C(CC2CCCC2)C(=O)Nc2ccncn2)cc1C#N (stereo not drawn) [Example 151, 2-(3-Cyano-4-methanesulfonyl-phenyl)-3-cyclopentyl-N-pyrimidin-4-yl-propionamide]
84 to 86 °C | Cc1cc(NC(=O)C(CC2CCCC2)c2ccc(Cl)c(Cl)c2)no1 (stereo not drawn) [Example 56, 3-Cyclopentyl-2-(3,4-dichlorophenyl)-N-(5-methyl-isoxazol-3-yl)-propionamide]
88 to 93 °C | CS(=O)(=O)c1ccc(C(CC2CCCC2)C(=O)Nc2cnccn2)cc1C#N (stereo not drawn) [Example 153, 2-(3-Cyano-4-methanesulfonyl-phenyl)-3-cyclopentyl-N-pyrazin-2-yl-propionamide]
58 to 60 °C | O=C(Nc1ncc[nH]1)C(CC1CCCC1)c1ccc(Cl)c(Cl)c1 (stereo not drawn) [Example 55, 3-Cyclopentyl-2-(3,4-dichlorophenyl)-N-(1H-imidazol-2-yl)-propionamide]
166.5 to 169.3 °C | O=C(Nc1ccncn1)[C@H](CC1CCCC1)c1ccc(Cl)c(Cl)c1 [Example 60, 3-Cyclopentyl-2(R)-(3,4-dichloro-phenyl)-N-pyrimidine-4-yl-propionamide]
144 to 145 °C | CCS(=O)(=O)c1ccc(C(CC2CCCC2)C(=O)Nc2ccccn2)cc1 (stereo not drawn) [Example 78, 3-Cyclopentyl-2-(4-ethanesulfonyl-phenyl)-N-pyridin-2-yl-propionamide]
102 to 107 °C | Nc1ccc(C(CC2CCCC2)C(=O)Nc2nccs2)cc1 (stereo not drawn) [Example 4, 2-(4-Amino-phenyl)-3-cyclopentyl-N-thiazol-2-yl-propionamide]
54 to 56 °C | COC(=O)c1ccc(C(CC2CCCC2)C(=O)Nc2nccs2)cc1 (stereo not drawn) [Example 117, 4-[2-Cyclopentyl-1-(thiazol-2-ylcarbamoyl)-ethyl]-benzoic acid methyl ester]
124 to 126 °C | CS(=O)(=O)c1ccc(C(CC2CCCC2)C(=O)Nc2nccs2)cc1NO (stereo not drawn) [Example 67, 3-Cyclopentyl-2-(3-hydroxyamino-4-methanesulfonyl-phenyl)-N-thiazol-2-yl-propionamide]
